Literature values as cited in US20050272649A1, “Conjoint administration of morphogens and ACE inhibitors in treatment of chronic renal failure” (priority 2002, published 2005).
“Also recorded” adds a separate entry of the source. Read-outs that look alike come from different tables or passages of the source.

Experiments:
hypertension = details: cited from earlier work; for safety / tolerability (in words): clinical studies
[1] = oral administration; cited from earlier work
AT1 receptor = molecular target: T1, AT1 receptor (Homo sapiens, UniProt P30556); details: cited from earlier work
T1 sequence (P30556 1-359): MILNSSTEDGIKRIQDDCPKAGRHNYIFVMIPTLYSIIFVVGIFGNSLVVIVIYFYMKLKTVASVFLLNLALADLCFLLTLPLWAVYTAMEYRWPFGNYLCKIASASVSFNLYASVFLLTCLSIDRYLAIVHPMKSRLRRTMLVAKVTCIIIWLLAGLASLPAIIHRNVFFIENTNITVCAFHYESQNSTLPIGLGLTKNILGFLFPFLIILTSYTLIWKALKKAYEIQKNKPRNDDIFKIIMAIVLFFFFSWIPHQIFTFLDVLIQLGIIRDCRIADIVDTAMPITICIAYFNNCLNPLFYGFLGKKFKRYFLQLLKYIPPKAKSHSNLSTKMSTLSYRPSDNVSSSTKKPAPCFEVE

[2] = comparator and dosages as stated in the sentence
[3] = olmesartan medoxomil 20 mg starting dose

| SMILES | safety / tolerability (in words) (hypertension) | antihypertensive efficacy compared (in words) (hypertension; [2]) | oral absorption / bioavailability / pharmacokinetics (in words) [1] | other results |
| --- | --- | --- | --- | --- |
| CCCc1nc2c(C)cc(-c3nc4ccccc4n3C)cc2n1Cc1ccc(-c2ccccc2C(=O)O)cc1 [Telmisartan] | side effect profile similar to that of placebo; also recorded: no rebound hypertension or first-dose orthostatic effect | slightly greater antihypertensive effect than enalapril | Nonlinear pharmacokinetics |  |
| CCOc1nc2cccc(C(=O)O)c2n1Cc1ccc(-c2ccccc2-c2nnn[nH]2)cc1 [Candesartan] | both safe and well tolerated | Comparable reductions of diastolic blood pressure | poorly absorbed after oral administration | affinity for the AT1 receptor relative to affinity for the AT2 receptor (AT1 receptor): more than 10,000 times; diastolic blood pressure reduction, adjusted mean more than the 50-mg losartan dosage (hypertension; candesartan 16 mg per day): 3.7 mm Hg |
| CCCc1nc(C(C)(C)O)c(C(=O)OCc2oc(=O)oc2C)n1Cc1ccc(-c2ccccc2-c2nnn[nH]2)cc1 [olmesartan medoxomil] |  | superior to losartan |  | reduction of diastolic pressure (average) (hypertension; [3]): 12 mm Hg; reduction of systolic pressure (average) (hypertension; [3]): 15 mm Hg |
| CCCCC(=O)N(Cc1ccc(-c2ccccc2-c2nnn[nH]2)cc1)[C@H](C(=O)O)C(C)C [Valsartan] | both safe and effective | as effective as ACE inhibitors enalapril, lisinopril and amlodipine |  |  |
| CCOc1nc2cccc(C(=O)OC(C)OC(=O)OC3CCCCC3)c2n1Cc1ccc(-c2ccccc2-c2nnn[nH]2)cc1 (stereo not drawn) [candesartan cilexetil] |  |  | improves bioavailability; also recorded: conversion to the active compound occurs rapidly and completely |  |
| CCCCC1=NC2(CCCC2)C(=O)N1Cc1ccc(-c2ccccc2-c2nnn[nH]2)cc1 [Irbesartan] | safe and effective | as effective as enalapril and atenolol in reducing blood pressure |  | affinity for the AT1 receptor relative to affinity for the AT2 receptor (AT1 receptor): more than 8,500 times; antihypertensive efficacy compared (in words) (hypertension; comparator and dosages as stated in the sentence, listed as irbesartan): significantly greater |
| CCCCc1nc(Cl)c(CO)n1Cc1ccc(-c2ccccc2-c2nn[nH]n2)cc1 [Losartan] | well tolerated |  |  | antihypertensive efficacy compared (in words) (hypertension; comparator and dosages): as efficacious as enalapril and nifedipine for lowering blood pressure; also recorded: no significant difference in antihypertensive efficacy; duration of activity for a dose (hypertension; losartan): 24 h |
